Experimental data taken from article PMC5760527, “Connexin 43 Hemichannel as a Novel Mediator of Sterile and Infectious Inflammatory Diseases” (Scientific Reports, 2018).

Legend:
Cx43 EL2 peptide = assay: Surface Plasmon Resonance, Cx43 EL2 peptide; format: binding; conditions: synthetic full-length EL2 peptide, data not shown
[1] = tested on: LPS-induced Cx43 upregulation, macrophages; assay: LPS-induced Cx43 upregulation in presence of P5; format: cell-based; conditions: macrophage cultures; data not shown
Protocol: (§1) The cellular levels of Cx43 and phosphor-PKR were determined by Western blotting analysis using an affinity-purified rabbit anti-Cx43 or anti-phospho-PKR (Thr^451) IgGs as previously described[9],[25],[53]. The levels of HMGB1 in the culture medium were determined by Western blotting analysis as described previously. The level of β-actin was used as a reference of total cellular proteins. Briefly, an equal volume of culture medium (conditioned by identical macrophage cell numbers) was harvested, and protein content was concentrated by ultrafiltration (with a molecular weight cutoff of 10.0 kDa), and then normalized to the same volume with a sample buffer. Proteins in equal sample volume were resolved on sodium dodecyl sulfate (SDS)-polyacrylamide gels, and transferred to polyvinylidene difluoride (PVDF) membranes. After blocking with 5% nonfat milk, the membrane was incubated with respective antibodies (anti-Cx43, 1:1000; anti-phospho-PKR, 1:1000; anti-HMGB1, 1:1,000; anti-β-actin. 1:5,000) overnight. Subsequently, the membrane was incubated with the appropriate secondary antibody, and the immunoreactive bands were visualized by chemiluminescence techniques.

[2] = tested on: cytokines and chemokines, RAW 264.7 cells; assay: Cytokine antibody array; format: cell-based, murine; conditions: P5 10 μM, LPS 16 h, 62-cytokine antibody array
Protocol: Murine Cytokine Antibody Arrays (Cat. No. M0308003, RayBiotech Inc., Norcross, GA, USA), which respectively detect 62 cytokines on one membrane, were used to determine cytokine levels in macrophage-conditioned culture medium as previously described[51],[54]. Briefly, the membranes were sequentially incubated with equal volumes cell-conditioned culture medium (200 μl), primary biotin-conjugated antibodies, and horseradish peroxidase–conjugated streptavidin.

[3] = tested on: hepatic I/R injury, C57BL/6 mice; assay: Hepatic ischemia/reperfusion injury; format: in vivo, Male C57BL/6 mice; conditions: P5 10.0 mg/kg i.v. at onset of reperfusion; 60 min ischemia; 24 h after onset of ischemia; P < 0.05 versus saline (I/R)
Protocol: Male C57BL/6 mice (20–25 g) were subjected to hepatic ischemia/reperfusion by temporally clamping the hepatic artery and portal vein for 60 min, which typically produced ischemia in 70% of the liver. At the beginning of the reperfusion, 0.2 ml saline, P5 (10.0 mg/kg BW) was injected via the internal jugular vein. At 24 h after the onset of ischemia, animals were euthanized to harvest blood to measure serum levels of hepatic injury markers such as alanine aminotransferase (ALT) and aspartate aminotransferase (AST) using commercial kits.

[4] = tested on: Cx43 protein expression, NIH 3T3 fibroblasts; assay: Cx43 protein expression, Western blotting, NIH 3T3 cells; format: cell-based; conditions: prolonged incubation, data not shown
Protocol: as §1

[5] = tested on: Cx43 gap junctions, NIH 3T3 fibroblasts; assay: Cx43 gap junction formation, immunostaining; format: cell-based; conditions: P5 20 µM, overnight
Protocol: Primary peritoneal macrophages were isolated from Balb/c mice, stimulated with LPS or SAA for 6 h, and immunostained with an affinity-purified rabbit anti-Cx43 IgGs (1:1,000 dilution at 4 °C) as previously described. Non-immune NIH 3T3 cells were grown on glass coverslips to confluency to allow formation of gap junctional channels. The growth medium was changed to DMEM before an overnight incubation with P5 (20 µM). Cells were then fixed with 2% paraformaldehyde, incubated for 16 hr with a well-characterized affinity-purified rabbit anti-Cx43 IgGs as previously described. After extensive washing, cells were incubated with donkey anti-rabbit Alexa 488 (Invitrogen) for 1 hr at room temperature. The coverslips were subsequently mounted on glass slides using anti-fade medium and examined using an epi-fluorescence microscope.

ENVCYD [P5, cysteine-containing Cx43 EL1 mimetic hexamer peptide, P5 (ENVCYD)]
binding to Cx43 EL2 peptide (Cx43 EL2 peptide): did not find evidence of P5 interacting | LPS-induced Cx43 upregulation [1]: did not affect the LPS-induced Cx43 upregulation | other cytokines and chemokines [2]: did not affect | serum alanine aminotransferase (ALT) [3]: significant reduction of serum levels | serum aspartate aminotransferase (AST) [3]: significant reduction of serum levels | systemic release of LDH [3]: significantly attenuated | Cx43 protein expression [4]: did not alter Cx43 protein expression | GJ formation (Cx43 punctate immunostaining) [5]: did not alter the punctate immunostaining profile of Cx43
